In patent US10900093B2, “Molecular marker of plasmodium falciparum artemisinin resistance” (priority 2013, dated 2021):

Legend:
Format in all cases: cell-based, Plasmodium falciparum
3D7 parasites = experiment: Ring-stage Survival Assay (RSA0-3h), control 3D7 parasites
Description: (§1) The Ring-stage Survival Assay (RSA^0-3h) was carried out as described by Witkowski et al^13 using highly synchronous parasite cultures. In brief, 0-3h post-invasion ring-stage parasites were exposed to 700 nM DHA [dihydroartemisinin, obtained from WWARN (www.wwarn.org/research/tools/qaqc)] or its solvent DMSO for 6 h, washed and then cultivated for the next 66 h without drug. Survival rates were assessed microscopically by counting in Giemsa-stained thin smears the proportion of viable parasites that developed into second-generation rings or trophozoites with normal morphology.

[1] = system: F32-ART5 parasite line (0-3h post-invasion ring-stage parasites); experiment: Ring-stage Survival Assay (RSA0-3h), F32-ART5 lineage; conditions: for RSA0-3h survival rate (median): 700 nM DHA for 6 h, n=3
Description: as §1
(§2) The F32-ART5 samples tested in the Ring-stage Survival Assay (RSA^0-3h) were collected at the time of the 17th, 48th and 122nd pressure cycles (0.04, 2.7 and 9 μM ART), respectively. The F32-TEM sample was collected at the last mock pressure cycle. The RSA0-3h survival rates were determined in triplicate experiments with different batches of red blood cells, and evaluated as above using Giemsa-stained thin smears read by two independent microscopists (B. W. and F. B.-V.). Survival rates were compared using Mann-Whitney U test. […] The RSA^0-3h survival rate of the F32-TEM line was also determined in triplicate experiments (n=3, median 0%, IQR 0-0.05, P=0.81 for #TEM vs. #17, Mann-Whitney U test).

[2] = system: Cambodian parasite isolates (0-3h post-invasion ring-stage parasites); experiment: Ring-stage Survival Assay (RSA0-3h), culture-adapted Cambodian parasite isolates stratified by K13-propeller allele
Description: Fifty clinical P. falciparum isolates from Cambodia (collected in 2010 and 2011) were adapted to in vitro culture as described by Witkowski et al.^45. […] Parasite DNA was extracted from frozen blood aliquots (200 μl) using the Mini blood kit (Qiagen).
as §1

[3] = system: F32-TEM line (0-3h post-invasion ring-stage parasites); experiment: Ring-stage Survival Assay (RSA0-3h), F32-TEM line; conditions: last mock pressure cycle, 700 nM DHA for 6 h, n=3
Description: as §1, §2

C[C@H]1[C@@H](O)O[C@@H]2O[C@@]3(C)CC[C@H]4[C@H](C)CC[C@@H]1[C@@]24OO3 [DHA, dihydroartemisinin]
RSA0-3h survival rate (3D7 parasites): 0.04% | RSA0-3h survival rate (median) ([1]; F32-ART5 at drug-pressure cycle #17): 0% | RSA0-3h survival rate (median) ([1]; F32-ART5 at drug-pressure cycle #48): 11.7% | RSA0-3h survival rate (median) ([1]; F32-ART5 at drug-pressure cycle #122): 12.8% | RSA0-3h survival rate ([1]; F32-ART5 lineage after appearance of PF3D7_0110400 D56V and PF3D7_1343700 M476I mutations): 12.8% | RSA0-3h survival rate ([1]; F32-ART5 lineage before appearance of PF3D7_0110400 D56V and PF3D7_1343700 M476I mutations): less than 0.01% | RSA0-3h survival rate (median) ([2]; isolates with wildtype K13-propeller alleles, n=16): 0.17% | RSA0-3h survival rate (median) ([2]; wildtype K13-propeller, n=17 (FIG. 2), 700 nM DHA for 6 h): 0.16% | RSA0-3h survival rate (median) ([2]; {}): 18.8% | RSA0-3h survival rates (range) ([2]; {}): 3.8%-58% | RSA0-3h survival rate (median) [3]: 0%
